IC50 data for 27 molecules are collected here from patent US6946465B2, “Immunosuppressive effects of pteridine derivatives” (4 AZA Bioscience NV, priority 1999, dated 2005).

Each structure is given as a SMILES string.

What all share (format): cell-based, human
Assay [1] concerns peripheral blood mononuclear cells (PBMC) with allogeneic PBMC or RPMI1788 stimulator cells. Briefly: Mixed lymphocyte reaction (MLR) test, [3H]-thymidine incorporation. Particulars: Table 1; 5 days incubation + 16 h thymidine. The source says:
(§1) Various models may be used for testing an immunosuppressive effect. In vivo, for example, different transplantation models are available. They are strongly influenced by different immunogenicities, depending on the donor and recipient species used and depending on the nature of the transplanted organ. The survival time of transplanted organs can thus be used to measure the suppression of the immune response. In vitro, the most used models are lymphocyte activation tests. Usually activation is measured via lymphocyte proliferation. Inhibition of proliferation thus always means immunosuppression under the experimental conditions applied. There exist different stimuli for lymphocyte activation: • a) co-culture of lymphocytes of […] (mixed lymphocyte reaction, hereinafter referred as MLR) in a so-called mixed lymphocyte culture test: lymphocytes expressing different minor and major antigens of the HLA-DR type (=alloantigens) activate each other non-specifically. • b) a CD3 assay here there is an activation of the T-lymphocytes via an exogenously added antibody (OKT3).
(§2) All reagents were dissolved in 0.5 ml dimethylsulfoxide (hereinafter referred as DMSO) and further diluted in culture medium before use for the following in vitro experiments. The commercially available culture medium consisted of RPMI-1640+10% foetal calf serum (FCS).
Peripheral blood mononuclear cells (hereinafter referred as PBMC) were isolated from heparinized peripheral blood by density gradient centrifugation over Lymphoprep (Nycomed, Maorstua, Norway). Allogeneic PBMC or Eppstein-Barr Virus-transformed human B cells [commercially available under the trade name RPM11788 (ATCC name CCL156)] which strongly express B7-1 and B7-2 antigens were used as stimulator cells after irradiation with 30 Gy. MLR was performed in triplicate wells. After 5 days incubation at 37° C., 1 μCi [^3 H]-thymidine was added to each cup. After a further 16 hours incubation, cells were harvested and counted in a β-counter. Inhibition of proliferation by a compound (drug) described in some of the previous examples was counted using the formula: [formula] wherein cpm is the thymidine count per minute. Assays for CD3 and CD 28
On the technique in general: Incorporation of labelled thymidine or its analogues reports DNA synthesis.

Assay [2] deals with highly purified T cells stimulated by immobilized anti-CD3 mAb. The assay is described as follows: CD3 assay: T-cell proliferation stimulated by anti-CD3 mAb + PMA (BrdU). Particulars: Table 1; anti-CD3 mAb + PMA 0.5 ng/ml, 48 h; read-out: CD 3 IC50.
Source text: as §1, §2
(§3) T cells were purified by removing non-T cells. Briefly, monocytes were removed by cold agglutination. The resulting lymphoid cells were further purified by a cell enrichment immunocolumn [Cellect Human T commercially available from Biotex, Edmonton, Alberta, Canada)] by a process of negative selection.
(§4) Highly purified T cells (10^6/ml) were stimulated by immobilized anti-CD3 or anti-CD28 monoclonal antibodies (hereinafter referred as mAb) in the presence of PMA. Anti-CD3 mAb (available from CLB, Amsterdam, Netherlands) were fixed on the 96-microwell plates by incubating the wells with 50 μl of mAb solution (1/800 dilution in culture medium). For anti-CD28 mAb (available from CLB, Amsterdam, Netherlands) 50 μl (1/650 dilution in culture medium) was added directly to the wells. Further, a 20 μl phorbol myristate acetate (hereinafter referred as PMA (commercially available from Sigma, St. Louis, Mo., USA) solution (final concentration: 0.5 ng/ml) was added. Subsequently, 20 μl of a compound described in some of the previous examples were added by serial dilution in triplicate wells. Finally 100 μl of the T-cell suspension (10^6/ml) was added. After 48-hour incubation at 37° C. in 5% CO2 20 μl of a bromo-deuridine (hereinafter referred as BrdU) 100 μM solution (commercially available as Cell Proliferation Elisa from Boehringer-Mannheim Belgium) was added to each well. After a further overnight incubation, T-cell proliferation was measured using a colorimetric immunoassay for qualification of cell proliferation based on the incorporation of BrdU during DNA synthesis. Optical density (hereinafter referred as OD) was measured by a Behring EL311 plate reader at 450 nm (reference wavelength: 690 nm). Inhibition of proliferation by a compound (drug) described in some of the previous examples was counted using the formula: [formula]

For assay [3], the system named is highly purified T cells stimulated by anti-CD28 mAb. The assay is described as follows: CD28 assay: T-cell proliferation stimulated by anti-CD28 mAb + PMA (BrdU). To be noted: Table 1; anti-CD28 mAb + PMA 0.5 ng/ml, 48 h.
Source text: as §1, §2, §3, §4

Usually IC50 stands for the midpoint of a concentration-inhibition curve. Take `Cn1c(=O)c2nc(C#N)c(NC3CCCCC3)nc2n(C)c1=O` [Example 55, 6-cyano-7-cyclohexylamino-1,3-dimethyl-lumazine]: the IC50 in assay [1] turned out to be 15 µM; in assay [2], 92 µM; in assay [3] it was 92 µM.

Turning to `Cn1c(=O)c2nc(C=O)c(O)nc2n(C)c1=O` [Example 45, 6-formyl-7-hydroxy-1,3-dimethyl-lumazine], the half-maximal inhibitory concentration (IC50) in assay [1] was more than 200 µM; in assay [2] it was 15.5 µM; in assay [3], 9 µM.

On to `Cn1c(=O)c2nc(C=O)c(NCCO)nc2n(C)c1=O` [Example 67, 6-formyl-7-hydroxyethylamino-1,3-dimethyl-lumazine], for which the 50% inhibitory concentration (IC50) in assay [1], in assay [2] and in assay [3] was 104 µM throughout.

On to `Cn1c(=O)c2nc(C=Cc3ccc(C(F)(F)F)cc3)cnc2n(C)c1=O` [Example 78, 6-[2-(p-trifluoromethylphenyl)ethenyl]-1,3-dimethyllumazine], for which the IC50 in assay [1] is 17 µM; in assay [2] it was more than 200 µM; in assay [3], 164 µM.

For `Cn1c(=O)c2nc(C=Cc3ccccc3)cnc2n(C)c1=O` [Example 79, 6-[2-phenylethenyl]-1,3-dimethyllumazine], the half-inhibitory concentration (IC50) in assay [1] is 17 µM; in assay [2] it was 104 µM; in assay [3], more than 200 µM.

As for `Cn1c(=O)c2ncc(C(Br)=Cc3ccccc3)nc2n(C)c1=O` [Example 28, 7-(1-bromo-2-phenyl)ethenyl-1,3-dimethyllumazine], the results for the 50% inhibitory concentration (IC50) in assay [1], in assay [2] and in assay [3] were 2.7 µM, 2.4 µM and 2.7 µM, respectively.

As to `Cn1c(=O)c2nc(Cl)c(C#N)nc2n(C)c1=O` [Example 51, 6-chloro-7-cyano-1,3-dimethyl-lumazine], the IC50 in assay [1] is 116 µM; in assay [2] it was 56 µM; in assay [3], 56 µM.

As to `Cn1c(=O)c2ncc(/C=C/c3ccccc3)nc2n(C)c1=O` [Example 26, 1,3-dimethyl-7-(E)-styryllumazine], the IC50 in assay [1] is 50 µM; in assay [2], 115 µM; in assay [3] it was 115 µM.

In the case of `Cn1c(=O)c2nc(C#N)c(SCc3ccccc3)nc2n(C)c1=O` [Example 59, 6-cyano-7-mercaptobenzyl-1,3-dimethyl-lumazine], the results for the IC50 in assay [1], in assay [2] and in assay [3] were more than 200 µM, 18.5 µM and 16 µM, respectively.

In the case of `CCOC(=O)c1nc2c(=O)n(C)c(=O)n(C)c2nc1NNc1ccccc1` [Example 64, 6-ethylcarboxylate-7-phenylhydrazino-1,3-dimethyl-lumazine], the values for the IC50 in assay [1], in assay [2] and in assay [3] were 20 µM, 56 µM and 12 µM, respectively.

As for `Cn1c(=O)c2nc(-c3ccccc3)c(S)nc2n(C)c1=O` [Example 32, 1,3-dimethyl-6-phenyl-7-mercaptolumazine], the half-maximal inhibitory concentration (IC50) in assay [1], in assay [2] and in assay [3] was 25 µM throughout.

With `CCCCNc1nc2c(nc1C(=O)OCC)c(=O)n(C)c(=O)n2C` [Example 60, 6-ethylcarboxylate-7-n-butylamino-1,3-dimethyl-lumazine], the concentration for half-maximal inhibition (IC50) was 13 µM in assay [1], 56 µM in assay [2] and 92 µM in assay [3].

Consider `Cn1c(=O)c2nc(C3OCCO3)c(Cl)nc2n(C)c1=O` [Example 49, 6-(1,3-dioxolanyl)-7-chloro-1,3-dimethyl-lumazine], for which the IC50 in assay [1] stood at 11 µM; in assay [2], 2.2 µM; in assay [3], 3.6 µM.

For the molecule `CC(C)Sc1nc2c(nc1C#N)c(=O)n(C)c(=O)n2C` [Example 58, 6-cyano-7-mercaptoisopropyl-1,3-dimethyl-lumazine], the IC50 was determined as 116 µM in assay [1], 104 µM in assay [2] and 116 µM in assay [3].

Consider `Cn1c(=O)c2nc(Cl)c(N3CCCCC3)nc2n(C)c1=O` [Example 75, 6-chloro-7-piperidyl-1,3-diimethyl-lumazine], for which the IC50 in assay [1] was determined as 160 µM; in assay [2], 80 µM; in assay [3], 80 µM.

Regarding `CCOC(=O)c1nc2c(=O)n(C)c(=O)n(C)c2nc1N1CCCCC1` [Example 63, 6-ethylcarboxylate-7-piperidinyl-1,3-dimethyl-lumazine], the results for the concentration for half-maximal inhibition (IC50) in assay [1], in assay [2] and in assay [3] were 104 µM, 128 µM and 80 µM, respectively.

Consider `Cn1c(=O)c2nc(/C=C/C=Cc3ccccc3)cnc2n(C)c1=O` [Example 9, 1,3-dimethyl-6-[(E)-4-(phenyl)butadienyl]lumazine], for which the half-inhibitory concentration (IC50) was determined as 75 µM in assay [1], 140 µM in assay [2] and 140 µM in assay [3].

With `Cn1c(=O)c2nc(/C=C/c3cccnc3)cnc2n(C)c1=O` [Example 6, 1,3-dimethyl-6-[(E)-2-(pyrid-3-yl)vinyl]lumazine], the half-inhibitory concentration (IC50) was determined as 30 µM in assay [1], 110 µM in assay [2] and 110 µM in assay [3].

Consider `Cn1c(=O)c2nc(C(Cl)Cl)c(Cl)nc2n(C)c1=O` [Example 50, 6-dichloromethyl-7-chloro-1,3-dimethyl-lumazine], for which the IC50 in assay [1] was 4 µM; in assay [2], 9.5 µM; in assay [3], 9.5 µM.

Consider `Cc1nc2c(nc1N1CCCC1)c(=O)n(C)c(=O)n2C` [Example 74, 6-pyrrolidinyl-1,3,7-trimethyl-lumazine], for which the figures for the IC50 in assay [1], in assay [2] and in assay [3] were 140 µM, 92 µM and 128 µM, respectively.

For `Cn1c(=O)c2nc(C(O)C[N+](=O)[O-])cnc2n(C)c1=O` (stereo not drawn) [Example 17, 6-[(1-hydroxy-2-nitro)ethyl]-1,3-dimethyllumazine], the half-inhibitory concentration (IC50) was 90 µM in assay [1], 25 µM in assay [2] and 15 µM in assay [3].

For `CCOC(=O)c1nc2c(=O)n(C)c(=O)n(C)c2nc1NCC(C)(C)C` [Example 61, 6-ethylcarboxylate-7-neopentylamino-1,3-dimethyl-lumazine], the IC50 in assay [1] came to 16 µM; in assay [2], 80 µM; in assay [3] it was 16 µM.

For `Cc1nc2c(=O)n(C)c(=O)n(C)c2nc1C=Cc1ccccc1` [Example 76, 7-(2-phenylethenyl)-1,3,6-trimethyl-lumazine], the values for the IC50 in assay [1], in assay [2] and in assay [3] were 120 µM, 68 µM and 116 µM, respectively.

In the case of `COC(=O)/C=C/c1cnc2c(=O)n(C)c(=O)n(C)c2n1` [Example 24, 7-[(E)-2-methoxycarbonylethenyl]-1,3-dimethyl-lumazine], the IC50 in assay [1] amounted to 15 µM; in assay [2], 12 µM; in assay [3], 12 µM.

As for `Cn1c(=O)c2nc(C=Cc3ccc(C(F)(F)F)cc3)cnc2n(C)c1=O` [Example 77, 6-[2-(p-trifluoromethylphenyl)ethenyl]-1,3-dimethyllumazine], the IC50 in assay [1] is 17 µM; in assay [2], more than 200 µM; in assay [3], 140 µM.

With `CCOC(=O)CSc1nc2c(nc1C(Cl)Cl)c(=O)n(C)c(=O)n2C` [Example 72, 6-dichloromethyl-7-ethylmercaptoacetate-1,3-dimethyl-lumazine], the half-inhibitory concentration (IC50) in assay [1] was 116 µM; in assay [2] it was more than 20 µM; in assay [3], 19 µM.

For the molecule `Cn1c(=O)c2nc(C=C[N+](=O)[O-])cnc2n(C)c1=O` [Example 18, 1,3-dimethyl-6-[(2-nitro)ethenyl]lumazine], the IC50 worked out at 12 µM in assay [1], 0.8 µM in assay [2] and 0.4 µM in assay [3].
